In patent US9670220B2, “Fused heterocyclic derivatives as S1P modulators” (Abbvie B.V., priority 2010, dated 2017):

Assays:
human S1P5 receptor = human S1P5 receptor (Homo sapiens (Human), UniProt Q9H228); assay: In vitro functional activity (agonism) on human S1P5 receptors, CHO-human-S1P5-Aequorin assay; assay type: cell-based; settings: aequorin luminescence; for EC50: read-out: S1P5 pEC50 (converted)
Procedure: In Vitro Functional Activity (Agonism) on Human 51P5 Receptors
The CHO-human-S1P5-Aeqorin assay was bought from Euroscreen, Brussels (Euroscreen, Technical dossier, Human Lysophospholid S1P5 (Edg8) receptor, DNA clone and CHO AequoScreen™ recombinant cell-line, catalog n°: ES-593-A, September 2006). Human-S1P5-Aequorin cells express mitochondrial targeted apo-Aequorin. […] This luminescent response is dependent on the agonist concentration. Luminescence is measured using the MicroBeta Jet (Perkin Elmer). Agonistic effects of compounds are expressed as pEC50.

human S1P1 receptor [1] = target: T1, human S1P1 receptor (Homo sapiens (Human), UniProt P21453); settings: agonism, determined using method A (aequorin)
T1 sequence (P21453 whole entry): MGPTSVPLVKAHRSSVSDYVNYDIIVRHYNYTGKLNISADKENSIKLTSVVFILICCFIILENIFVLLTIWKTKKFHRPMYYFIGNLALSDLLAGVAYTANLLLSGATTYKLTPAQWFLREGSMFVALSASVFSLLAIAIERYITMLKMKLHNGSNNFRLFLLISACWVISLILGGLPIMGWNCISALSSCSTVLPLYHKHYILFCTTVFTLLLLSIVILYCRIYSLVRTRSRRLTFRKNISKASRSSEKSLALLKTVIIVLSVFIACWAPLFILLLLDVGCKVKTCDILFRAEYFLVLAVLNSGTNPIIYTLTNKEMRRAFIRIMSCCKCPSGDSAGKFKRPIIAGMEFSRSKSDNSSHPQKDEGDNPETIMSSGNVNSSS
Source text: In Vitro Functional Activity (Agonism) on Human S1P1 Receptors (Method A)
The CHO-K1-human-S1P1-Acqorin assay was bought from Euroscreen Fast, Brussels (Euroscreen, Technical dossier, Human S1P1 (Edg1) receptor, DNA clone and CHO-K1 AequoScreen™ recombinant cell-line, catalog n°: FAST-0197 L, February 2010). Human-S1P1-Aequorin cells express mitochondrial targeted apo-Aequorin. Cells have to be loaded with coelanterazine, in order to reconstitute active Aequorin. After binding of agonists to the human S1P1 receptor the intracellular calcium concentration increases and binding of calcium to the apo-Aequorin/coelenterazine complex leads to an oxidation reaction of coelenterazine, which results in the production of apo-Aequorin, coelenteramide, CO2 and light ([…]max 469 nm). This luminescent response is dependent on the agonist concentration. Luminescence is measured using the MicroBeta Jet (Perkin Elmer). Agonistic effects of compounds are expressed as pEC50. Compounds were tested at a 10 points half log concentration range, and 2 independent experiments were performed in single point's measurements.

human S1P3 receptor = human S1P3 receptor (Homo sapiens (Human), UniProt Q99500); assay: In vitro functional activity (agonism) on human S1P3 receptors, CHO-human-S1P3-Aequorin assay; assay type: cell-based; settings: aequorin luminescence; for EC50: read-out: S1P3 pEC50 (converted)
human S1P3 receptor, sequence (Q99500 whole entry): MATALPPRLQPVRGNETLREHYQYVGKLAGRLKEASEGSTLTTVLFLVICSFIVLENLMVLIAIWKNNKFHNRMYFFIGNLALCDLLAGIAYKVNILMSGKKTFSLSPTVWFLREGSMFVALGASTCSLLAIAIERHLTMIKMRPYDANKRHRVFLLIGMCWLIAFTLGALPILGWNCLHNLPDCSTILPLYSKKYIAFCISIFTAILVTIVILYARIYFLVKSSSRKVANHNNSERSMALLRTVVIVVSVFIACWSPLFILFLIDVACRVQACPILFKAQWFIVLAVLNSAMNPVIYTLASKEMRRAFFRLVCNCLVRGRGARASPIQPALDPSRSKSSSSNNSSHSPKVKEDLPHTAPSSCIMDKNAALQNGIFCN
Procedure: In Vitro Functional Activity (Agonism) on Human S1P3 Receptors
The CHO-human-S1P3-Aeqorin assay (CHO/Gα16/AEQ/h-S1P3) was established at Solvay Pharmaceuticals. […] This luminescent response is dependent on the agonist concentration. Luminescence is measured using the MicroBeta Jet (Perkin Elmer). Agonistic effects of compounds are expressed as pEC50.

human S1P1 receptor [2] = target: T1, human S1P1 receptor; assay: In vitro functional activity (agonism) on human S1P1 receptors (method B), CHO-K1-human S1P1 cAMP assay; assay type: cell-based; settings: determined using method B (cAMP, forskolin); for EC50: read-out: S1P1^B pEC50 (converted)
Procedure: The CHO-K1-Human S1P1-c-AMP assay was performed at Euroscreenfast, Brussels (Euroscreen, Human S1P1 coupling Gi/0, (Edg1) receptor, catalog no: FAST-0197C, December 2009).
Recombinant CHO-K1 cells expressing human S1P1, grown to mid-log Phase in culture media without antibiotics, detached, centrifuged and re-suspended. For agonist testing cells are mixed with compound and Forskolin and incubated at room temperature. Cells are lyses and cAMP concentration are estimated, according to the manufacturer specification, With the HTRF kit from CIS-BIO International (cat n°62AM2PEB).
Agonistic effects of compounds are expressed as a percentage of the activity of the reference compound at its EC100 concentration, EC50 is calculated and results are reported as pEC50.

human S1P5 receptor, sequence (Q9H228 whole entry): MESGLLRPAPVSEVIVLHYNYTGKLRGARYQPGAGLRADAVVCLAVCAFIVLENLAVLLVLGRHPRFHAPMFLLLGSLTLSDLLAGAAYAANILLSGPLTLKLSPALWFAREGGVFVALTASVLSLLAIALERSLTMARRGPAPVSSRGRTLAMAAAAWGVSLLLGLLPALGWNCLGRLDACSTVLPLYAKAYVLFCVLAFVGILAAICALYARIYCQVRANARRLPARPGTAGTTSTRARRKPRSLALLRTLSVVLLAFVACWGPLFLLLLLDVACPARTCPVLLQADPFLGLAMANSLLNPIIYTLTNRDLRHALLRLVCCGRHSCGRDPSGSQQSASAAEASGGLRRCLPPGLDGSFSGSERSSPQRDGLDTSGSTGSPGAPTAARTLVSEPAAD

Compound	S1P5 pEC50 (human S1P5 receptor)	S1P1^A pEC50 (human S1P1 receptor [1])	S1P3 pEC50 (human S1P3 receptor)	S1P1^B pEC50 (human S1P1 receptor [2])	EC50 (human S1P5 receptor)	EC50 (human S1P3 receptor)	EC50 (human S1P1 receptor [2])
O=C(O)C1CC(N2CCc3oc(-c4ccc(OCc5ccc(OC(F)(F)F)cc5)cc4)nc3C2)C1 (stereo not drawn) [Compound 307, 3-{2-[4-(4-Trifluoromethoxybenzyloxy)-phenyl]-6,7-dihydro-H-oxazolo[4,5-c]pyridine-5-yl}-cyclobutane carboxylic acid]	7.3	<5	<5.0				
Cc1cc(OCc2ccccc2F)ccc1-c1nc2c(o1)CCN(CCCC(=O)O)C2 [Compound 89, 4-{2-[4-(2-Fluoro-benzyloxy)-2-methyl-phenyl]-6,7-dihydro-H-oxazolo[4,5-c]pyridine-5-yl}-butyric acid]	8.2		<5.0	5.9			
CC(CN1CCc2oc(-c3ccc(OCc4ccc(C(F)(F)F)cc4)cc3)nc2C1)C(=O)O (stereo not drawn) [Compound 156, 3-{2-[4-(4-Trifluoromethyl-benzyloxy)-phenyl]-6,7-dihydro-H-oxazolo[4,5-c]pyridine-5-yl}-2-methyl-propionic acid]	8.4		5.5	6.2			
O=C(O)CCN1CCc2oc(-c3ccc(OCc4ccccc4)cc3)nc2C1 [Compound 47]	8.0		<5	<5.5			
O=C(O)CCCN1CCc2oc(-c3ccc(OCc4ccc(Cl)cc4)c(F)c3)nc2C1 [Compound 211, 4-{2-[4-(4-Chloro-benzyloxy)-3-fluoro-phenyl]-6,7-dihydro-H-oxazolo[4,5-c]pyridine-5-yl}-butyric acid]	8.3		<5.0	6.1			
CC(CN1CCc2oc(-c3ccc(OCc4ccc(C(F)(F)F)cc4)cc3F)nc2C1)C(=O)O (stereo not drawn) [Compound 271, 3-{2-[4-(4-Trifluoromethyl-benzyloxy)-2-fluoro-phenyl]-6,7-dihydro-H-oxazolo[4,5-c]pyridine-5-yl}-2-methyl-propionic acid]	8.0		5.4	6.2			
O=C(O)CCN1CCc2oc(-c3ccc(OCc4ccccc4F)cc3)cc2C1 [Compound 33, 3-{2-[4-(2-Fluoro-benzyloxy)-phenyl]-6,7-dihydro-4H-furo[3,2-c]pyridine-5-yl}-propionic acid]					15.8 nM	3.16 µM	100 nM
CC(CN1CCc2oc(-c3ccc(OCc4ccc(Cl)cc4)cc3)cc2C1)C(=O)O (stereo not drawn) [Compound 77, 3-{2-[4-(4-Chloro-benzyloxy)-phenyl]-6,7-dihydro-4H-furo[3,2-c]pyridine-5-yl}-2-methyl-propionic acid]					3.98 nM	0.794 µM	31.6 nM
O=C(O)CCCN1CCc2oc(-c3ccc(OCc4ccc(C(F)(F)F)cc4)cc3F)nc2C1 [Compound 85, 4-{2-[4-(4-Trifluoromethyl-benzyloxy)-2-fluoro-phenyl]-6,7-dihydro-H-oxazolo[4,5-c]pyridine-5-yl}-butyric acid]	8.6		6.3	<5.5			
O=C(O)CCCN1CCc2oc(-c3ccc(OCc4ccccc4)cc3)nc2C1 [Compound 53, 4-{2-[4-Benzyloxy-phenyl]-6,7-dihydro-H-oxazolo[4,5-c]pyridine-5-yl}-butyric acid]	7.9	<4.5	<5				
CC(CN1CCc2oc(-c3ccc(OCc4ccc(Cl)cc4)cc3)nc2C1)C(=O)O (stereo not drawn) [Compound 157, 3-{2-[4-(4-Chloro-benzyloxy)-phenyl]-6,7-dihydro-H-oxazolo[4,5-c]pyridine-5-yl}-2-methyl-propionic acid]	8.1		5.3	6.2			
O=C(O)CCCN1CCc2oc(-c3ccc(OCc4cccc(F)c4F)cc3)nc2C1 [Compound 57]	8.0		<5	<5.5			
O=C(O)CCCN1CCc2oc(-c3ccc(OCc4ccccc4F)cc3F)cc2C1 [Compound 73, 4-{2-[4-(2-Fluoro-benzyloxy)-2-fluoro-phenyl]-6,7-dihydro-4H-furo[3,2-c]-pyri-dine-5-yl}-butyric acid]	8.2		6.3	8.0			
O=C(O)C1CC(N2CCc3oc(-c4ccc(OCc5ccc(F)c(F)c5)cc4)nc3C2)C1 (stereo not drawn) [Compound 278, 3-{2-[4-(3,4-Difluorobenzyloxy)-phenyl]-6,7-dihydro-H-oxazolo[4,5-c]pyridine-5-yl}-cyclobutane carboxylic acid]	7.4	<5	<5				
CC(CN1CCc2oc(-c3ccc(OCc4ccccc4)cc3)nc2C1)C(=O)O (stereo not drawn) [Compound 146, 3-[2-(4-Benzyloxy-phenyl)-6,7-dihydro-H-oxazolo[4,5-c]pyridine-5-yl]-2-methyl-propionic acid]	7.8		<5.0	<5.5			
CC(CC(=O)O)N1CCc2oc(-c3ccc(OCc4ccccc4)cc3)cc2C1 (stereo not drawn) [Compound 76, 3-{2-[4-Benzyloxy-phenyl]-6,7-dihydro-4H-furo[3,2-c]pyridine-5-yl}-butyric acid]					7.94 nM	> 10 µM	251 nM
O=C(O)CCCN1CCc2oc(-c3ccc(OCc4ccccc4F)c(Cl)c3)nc2C1 [Compound 283, 4-{2-[4-(2-Fluoro-benzyloxy)-3-chloro-phenyl]-6,7-dihydro-H-oxazolo[4,5-c]pyridine-5-yl}-butyric acid]	7.7	<4.5	<5				
O=C(O)C1CC(N2CCc3oc(-c4ccc(OCc5ccc(OC(F)(F)F)cc5)cc4)nc3C2)C1 (stereo not drawn) [Compound 306, 3-{2-[4-(4-Trifluoromethoxybenzyloxy)-phenyl]-6,7-dihydro-H-oxazolo[4,5-c]pyridine-5-yl}-cyclobutane carboxylic acid]	8.1	<5	<5.0				
O=C(O)CCCN1CCc2oc(-c3ccc(OCc4ccccc4F)cc3)cc2C1 [Compound 35, 4-{2-[4-(2-Fluoro-benzyloxy)-phenyl]-6,7-dihydro-4H-furo[3,2-c]pyridine-5-yl}-butyric acid]					5.01 nM	5.01 µM	251 nM
O=C(O)C1CC(N2CCc3oc(-c4ccc(OCc5ccc(F)c(F)c5)cc4)nc3C2)C1 (stereo not drawn) [Compound 277, 3-{2-[4-(3,4-Difluorobenzyloxy)-phenyl]-6,7-dihydro-H-oxazolo[4,5-c]pyridine-5-yl}-cyclobutane carboxylic acid]	8.5	5.2	<5.0				
O=C(O)CCCN1CCc2oc(-c3ccc(OCc4ccc(Cl)c(Cl)c4)cc3F)nc2C1 [Compound 227, 4-{2-[4-(3,4-Dichloro-benzyloxy)-2-fluoro-phenyl]-6,7-dihydro-H-oxazolo[4,5-c]pyridine-5-yl}-butyric acid]	8.5		<6.0	6.0			
CC(CC(=O)O)N1CCc2oc(-c3ccc(OCc4cccc(F)c4F)cc3)nc2C1 (stereo not drawn) [Compound 175]	8.3		5.8	<5.5			
